# In patent publication US20020102259A1, “Methods and compositions for stimulating CD 45 and thereby suppressing microglial activation associated with Alzheimer's disease” (priority 2000, published 2002):
# “Also recorded” adds a separate entry of the source.
# B1: CD45 recombinant protein: Human CD45 recombinant protein obtained from CALBIOCHEM, added at 20 U/mL (protein, UniProt P08575 26-1306, looked up)
# Receptor-type …: QSPTPSPTGLTTAKMPSVPLSSDPLPTHTTAFSPASTFERENDFSETTTSLSPDNTSTQVSPDSLDNASAFNTTGVSSVQTPHLPTHADSQTPSAGTDTQTFSGSAANAKLNPTPGSNAISDVPGERSTASTFPTDPVSPLTTTLSLAHHSSAALPARTSNTTITANTSDAYLNASETTTLSPSGSAVISTTTIATTPSKPTCDEKYANITVDYLYNKETKLFTAKLNVNENVECGNNTCTNNEVHNLTECKNASVSISHNSCTAPDKTLILDVPPGVEKFQLHDCTQVEKADTTICLKWKNIETFTCDTQNITYRFQCGNMIFDNKEIKLENLEPEHEYKCDSEILYNNHKFTNASKIIKTDFGSPGEPQIIFCRSEAAHQGVITWNPPQRSFHNFTLCYIKETEKDCLNLDKNLIKYDLQNLKPYTKYVLSLHAYIIAKVQRNGSAAMCHFTTKSAPPSQVWNMTVSMTSDNSMHVKCRPPRDRNGPHERYHLEVEAGNTLVRNESHKNCDFRVKDLQYSTDYTFKAYFHNGDYPGEPFILHHSTSYNSKALIAFLAFLIIVTSIALLVVLYKIYDLHKKRSCNLDEQQELVERDDEKQLMNVEPIHADILLETYKRKIADEGRLFLAEFQSIPRVFSKFPIKEARKPFNQNKNRYVDILPYDYNRVELSEINGDAGSNYINASYIDGFKEPRKYIAAQGPRDETVDDFWRMIWEQKATVIVMVTRCEEGNRNKCAEYWPSMEEGTRAFGDVVVKINQHKRCPDYIIQKLNIVNKKEKATGREVTHIQFTSWPDHGVPEDPHLLLKLRRRVNAFSNFFSGPIVVHCSAGVGRTGTYIGIDAMLEGLEAENKVDVYGYVVKLRRQRCLMVQVEAQYILIHQALVEYNQFGETEVNLSELHPYLHNMKKRDPPSEPSPLEAEFQRLPSYRSWRTQHIGNQEENKSKNRNSNVIPYDYNRVPLKHELEMSKESEHDSDESSDDDSDSEEPSKYINASFIMSYWKPEVMIAAQGPLKETIGDFWQMIFQRKVKVIVMLTELKHGDQEICAQYWGEGKQTYGDIEVDLKDTDKSSTYTLRVFELRHSKRKDSRTVYQYQYTNWSVEQLPAEPKELISMIQVVKQKLPQKNSSEGNKHHKSTPLLIHCRDGSQQTGIFCALLNLLESAETEEVVDIFQVVKALRKARPGMVSTFEQYQFLYDVIASTYPAQNGQVKKNNHQEDKIEFDNEVDKVKQDANCVNPLGAPEKLPEAKEQAEGSEPTSGTEGPEHSVNGPASPALNQGS
# What was measured:
# [1] = tested on: primary cultured microglial cells; assay: TNF-α ELISA on primary cultured microglial cells; format: cell-based, mouse; conditions: for TNF-α production (microglial activation): phosphatase inhibitor co-treated with Aβ peptides (1000 nM), wild-type microglia, 12 hours; for TNF-α release induced by phen and Aβ peptides: microglia activated with phen (5 mM) and Aβ peptides (1000 nM), 12 h, effect of added agent
# Description: (§1) Breeding pairs of BALB/c and CD45 deficient (C57BL/601aHsd-Ptprc) mice were purchased from Jackson Laboratory (Bar Harbor, Maine) and housed in the animal facility at the University of South Florida Health Science Center. Tg APPSW mice are the 2576 line backcrossed to C57B6/SJL as previously described (Hsiao et al., 1995; Hsiao et al., 1996). Murine primary culture microglia were isolated from mouse cerebral cortices and were grown in RPMI medium supplemented with 5% fetal calf serum, 2 mM glutamine, 100 U/mL penicillin, […] streptomycin and 0.05 mM 2-mercaptoethanol according to previously described methods (Chao et al., 1992). Briefly, cerebral cortices from newborn mice (1-2 days old) were isolated under sterile conditions and were kept at 4 degrees Centigrade prior to mechanical dissociation. Cells were plated in […] flasks and complete medium was added. Primary cultures were kept for 14 days so that only glial cells remained, and microglia were isolated by shaking flasks at 200 rpm in a LabLine TM Incubator-Shaker. More than 98% of these glial cells stained positive for Mac-1 (CD11b /CD18; Boehringer Mannheim Biochemicals, Indianapolis, Ind.). Mouse primary culture neuronal cells were prepared as previously described (Chao et al., 1992). Briefly, cerebral cortices were isolated from BALB/c mouse embryos, between 15 to 17 days in utero, and cortices were mechanically dissociated in trypsin ([…]) following incubation for 15 min at 37° C. Cells were collected following centrifugation at 1200 rpm and resuspended in DMEM (GIBCO, Gaithersburg, Md.) supplemented with 10% fetal calf serum, 10% horse serum, uridine (33.6 mg/mL, Sigma Chemical-Co., St. Louis, Mo.) and fluorodeoxyuridine (1 3.6 mg/mL, Sigma) and plated in 24 well tissue-culture plates at 2.5×1 O′ cells/well after collagen-coating the plates. After 10 days in vitro, cells were passed in preparation for subsequent experiments. […] To verify CD45 deficiency status, CD45 expression in microglia isolated from CD45 -deficient mice was determined by FACS (fluorescence activated cell sorter) analysis as previously described (Tan et al., 1999a), and CD45 was undetectable in these cells (data not shown).
# (§2) Primary cultured microglial cells were plated in 24-well tissue-culture plates (Costar, Cambridge, Mass.) at 5×10^4 cells/well and stimulated for 12 h with phen ([…]), Aβ peptides (1000 nM) or phen/Aβ peptides in the presence or absence of anti-CD45 antibody (1:200) or PD98059 ([…]) pre-treatment for 1 hour, or appropriate controls. […] The Bio-Rad protein assay (Bio-Rad Laboratories, Hercules, Calif.) was performed to measure total cellular protein from each of the cell groups under consideration just prior to quantification of cytokine release by ELISA or NO secretion by NO assay.
# [2] = tested on: primary cultured microglial cells; assay: Nitric oxide (NO) release assay on primary cultured microglial cells; format: cell-based, mouse; conditions: for NO release (microglial activation): phosphatase inhibitor co-treated with Aβ peptides (1000 nM), wild-type microglia, 12 hours; for NO release induced by phen and Aβ peptides: microglia activated with phen (5 mM) and Aβ peptides (1000 nM), 12 h, effect of added agent
# Description: as §1, §2
# p44/22 MAPK [3] = assay: Western immunoblotting of phosphorylated/total p44/22 MAPK in microglial cell lysates; format: cell-based, mouse; conditions: microglia co-treated with phen and Aβ peptides; effect of added agent
# Description: Murine primary culture microglia were plated in 6 well tissue-culture plates at a density of 8×10^5 cells/well. These cells were incubated for 30 min with or without phen ([…]) and Aβ peptides (1000 nM) in the presence or absence of anti-CD45 or control antibodies (1:200 dilution for each) or PD98059 ([…]) pre-treatment for 1 hour, or appropriate controls. Immediately following culturing, microglia were washed in ice-cold phosphate buffered saline (PBS) 3×, scraped into ice-cold PBS, and lysed in an ice-cold lysis buffer containing 20 mM Tris (pH 7.5), 150 mM NaCl, 1 mM EDTA, 1 mM EGTA, 1% Triton X-100, 2.5 mM sodium pyrophosphate, 1 mM b-glycerolphosphate, 1 mM Na3VO4, 1 μg/mL leupeptin, and 1 mM PMSF. After incubation for 30 min. on ice, samples were centrifuged at high speed for 15 minutes, and supernatants were collected. Total protein content was estimated using the Bio-Rad protein assay. An aliquot corresponding to 50 μg of total protein of each sample was separated by SDS-PAGE and transferred electrophoretically to Hy-bond PVDF membranes. Non-specific antibody binding was blocked with 5% non-fat dry milk for 1 h at room temperature in TBS (20 mM Tris, 500 mM NaCl, pH 7.5). […] Densiometric analysis was preformed for all blots using the Fluor-S Multimager™ with Quantity One™ software (Bio-Rad, Calif.).
# p44/22 MAPK [4] = assay: Immune complex kinase assay (phospho-Elk 1) in microglial cell lysates; format: cell-based, mouse; conditions: microglia co-treated with phen and Aβ peptides; effect of added agent
# Description: Primary culture microglial cells were seeded in 6-well tissue-culture plates at 8×10^5 per well. Thirty minutes following co-treatment with phen and Aβ peptides in the presence or absence of anti-CD45 antibody or appropriate controls, microglial cells were lysed in ice-cold lysis buffer (as described above). Total cellular protein was quantified with the BioRad protein assay, and an aliquot of […] of protein for each treatment condition was separated by SDS-PAGE. p44/22 MAPK activity was determined using the p44/22 MAP-Kinase Assay Kit (New England BioLabs, Beverly, Mass.) in strict accordance with the manufacturer's instruction. The phosphorylated form of the Elk 1 p44/22 MAPK fusion protein was visualized by Western immunoblotting (as described above) using a specific antibody for phosphorylated Elk 1 supplied with the kit.
# Tg APPSW mice = Tg APPSW mice given ibuprofen; cited from earlier work
Molecule,TNF-α production (microglial activation) [1],NO release (microglial activation) [2],TNF-α release induced by phen and Aβ peptides [1],NO release induced by phen and Aβ peptides [2],also measured
[Na+].[Na+].[Na+].[O]=[V]([O-])([O-])[O-] [sodium orthovanadate],results similar to phen and Aβ peptide co-treatment,results similar to phen and Aβ peptide co-treatment,–,–,–
COc1cccc(-c2cc(=O)c3ccccc3o2)c1N [PD98059],–,–,markedly decreased; also recorded: statistically interactive blockade,markedly decreased; also recorded: statistically interactive blockade,phen and Aβ-mediated phosphorylation of p44/22 MAPK (p44/22 MAPK [3]): significant reduction; phen and Aβ-mediated activity of p44/22 MAPK (p44/22 MAPK [4]): significant reduction
CC(C)Cc1ccc(C(C)C(=O)O)cc1 (centres unmarked) [ibuprofen],–,–,–,–,"Aβ deposits, astrocytosis, and dystrophic neurites (Tg APPSW mice): reduction"
C=C1[C@@H](O)[C@@H]2O[C@]3(CC[C@H](/C=C/[C@@H](C)[C@@H]4CC(C)=C[C@@]5(O[C@H](C[C@@](C)(O)C(=O)O)CC[C@H]5O)O4)O3)CC[C@H]2O[C@@H]1[C@@H](O)C[C@H](C)[C@H]1O[C@@]2(CCCCO2)CC[C@H]1C [okadaic acid],not detectable,not detectable,–,–,–
B1,–,–,markedly decreased,markedly decreased,–
